Data taken from PubChem BioAssay AID248 (DTP/NCI, 2004).
Values joined by “and” are separate entries in the source; they are usually repeats but may differ in a detail not shown here. Equal values may be shown once. Inconclusive results and toxic doses are left out. Cut-off read from the data, not from the text of the source: active = T/C of 150% or more; inactive = T/C below 125%.

Tested on: L1210 leukemia ip in BDF1 mice, survival T/C
Experiment: NCI In Vivo Anticancer Drug Screen. Data for tumor model L1210 Leukemia (intraperitoneal) in B6D2F1 (BDF1) mice
Settings: endpoint: mean survival time, higher = longer survival
In short: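 Transplantable tumor model; survival measured in treated vs vehicle control mice. Value = treated/control.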

[1] = dose: 100.0 mg/kg/injection, schedule: Q01DX001 (ip), vehicle: carboxymethylcellulose (CMC)
[2] = dose: 400.0 mg/kg/injection, schedule: Q01DX001 (ip), vehicle: carboxymethylcellulose (CMC)

Measured: T/C

O=[N+]([O-])c1ccc(NS(=O)(=O)c2ccc(Cl)c(Cl)c2)cc1
inactive: dose: 12.5 mg/kg/injection, schedule: Q01DX001 (ip), vehicle: other 92 % of control | dose: 12.5 mg/kg/injection, schedule: Q01DX009 (ip), vehicle: gum acacia 101 % of control | dose: 12.5 mg/kg/injection, schedule: Q04DX003 (ip), vehicle: other 95 % of control | dose: 25.0 mg/kg/injection, schedule: Q01DX001 (ip), vehicle: other 97 % of control | dose: 25.0 mg/kg/injection, schedule: Q01DX009 (ip), vehicle: gum acacia 91 % of control | dose: 25.0 mg/kg/injection, schedule: Q04DX003 (ip), vehicle: other 94 % of control | dose: 50.0 mg/kg/injection, schedule: Q01DX001 (ip), vehicle: other 97 % of control | dose: 50.0 mg/kg/injection, schedule: Q04DX003 (ip), vehicle: other 94 % of control

CNCCCN(C)CCCNC
inactive: dose: 25.0 mg/kg/injection, schedule: Q01DX009 (ip), vehicle: saline 100 % of control | dose: 25.0 mg/kg/injection, schedule: Q04DX003 (ip), vehicle: saline 96 % of control | dose: 50.0 mg/kg/injection, schedule: Q01DX009 (ip), vehicle: saline 101 % of control | dose: 50.0 mg/kg/injection, schedule: Q04DX003 (ip), vehicle: saline 104 % of control | dose: 100.0 mg/kg/injection, schedule: Q01DX009 (ip), vehicle: saline 94 % of control | dose: 100.0 mg/kg/injection, schedule: Q04DX003 (ip), vehicle: saline 99 % of control and 102 % of control

Nc1nc(-c2ccccc2)nc2nonc12
inactive: dose: 100.0 mg/kg/injection, schedule: Q04DX003 (ip), vehicle: saline with Tween-80 105 % of control | dose: 200.0 mg/kg/injection, schedule: Q04DX003 (ip), vehicle: saline with Tween-80 99 % of control | dose: 400.0 mg/kg/injection, schedule: Q04DX003 (ip), vehicle: saline with Tween-80 97 % of control

CCCCCCC(=O)/C=C/c1ccc(Cl)c(Cl)c1
inactive: dose: 100.0 mg/kg/injection, schedule: Q01DX009 (ip), vehicle: acetone 92 % of control | dose: 100.0 mg/kg/injection, schedule: Q04DX003 (ip), vehicle: acetone 101 % of control | dose: 200.0 mg/kg/injection, schedule: Q01DX009 (ip), vehicle: acetone 92 % of control | dose: 200.0 mg/kg/injection, schedule: Q04DX003 (ip), vehicle: acetone 93 % of control | dose: 400.0 mg/kg/injection, schedule: Q04DX003 (ip), vehicle: acetone 98 % of control

CCNc1nc2c(N)ncnc2n1C1CC(O)C(CO)O1 (stereo not drawn)
inactive: [1] 96 % of control | dose: 200.0 mg/kg/injection, schedule: Q01DX001 (ip), vehicle: carboxymethylcellulose (CMC) 98 % of control | [2] 93 % of control

CCOC(=O)c1ccc(N(C=O)CCC(=O)CCl)cc1
inactive: dose: 3.0 mg/kg/injection, schedule: Q01DX009 (ip), vehicle: saline 104 % of control | dose: 5.0 mg/kg/injection, schedule: Q01DX001 (ip), vehicle: saline 95 % of control | dose: 6.0 mg/kg/injection, schedule: Q01DX009 (ip), vehicle: saline 100 % of control | dose: 10.0 mg/kg/injection, schedule: Q01DX001 (ip), vehicle: saline 102 % of control | dose: 12.0 mg/kg/injection, schedule: Q01DX009 (ip), vehicle: saline 94 % of control | dose: 12.5 mg/kg/injection, schedule: Q01DX009 (ip), vehicle: carboxymethylcellulose (CMC) 107 % of control | dose: 20.0 mg/kg/injection, schedule: Q01DX001 (ip), vehicle: saline 104 % of control | dose: 25.0 mg/kg/injection, schedule: Q01DX009 (ip), vehicle: carboxymethylcellulose (CMC) 107 % of control | dose: 40.0 mg/kg/injection, schedule: Q01DX001 (ip), vehicle: saline 106 % of control

Cc1nc(N)nc(N)c1CCCCc1ccc(N)cc1
inactive: dose: 100.0 mg/kg/injection, schedule: Q01DX001 (ip), vehicle: Klucel (hydroxypropylcellulose) (HPC) 92 % of control | dose: 200.0 mg/kg/injection, schedule: Q01DX001 (ip), vehicle: Klucel (hydroxypropylcellulose) (HPC) 101 % of control

Cc1ccc2ccc(/C=N/Nc3ccc4cccc(O)c4n3)c(O)c2n1
inactive: [1] 88 % of control | [2] 88 % of control
